Measured values taken from patent US7964406B2, “Means and methods for producing a stabilized cell of interest” (Academisch Medisch Centrum Bij De Universiteit Van Amsterdam, priority 2004, dated 2011).

Legend:
human tonsillar B cells = test: 4HT-dependent growth of CA-STAT5b-ER transduced tonsillar B cells; format: cell-based; conditions: 1 μM 4HT, CD40L, IL-2 and IL-4
Procedure: FIG. 19. Characteristics of B cells transduced with CA-STAT5b-ER. (A) Tonsil B cells were cultured in CD40L, IL-2 and IL-4 and transduced with CA-STAT5b-ER-IRES-ΔNGFR (circles) or with control-IRES-ΔNGFR (squares). Both cultures were split, one part was cultured without (open symbols) and another with 1 μM 4HT (closed symbols). At the indicated time points after transduction percentages of transduced cells were determined by flow cytometric analysis after staining with an APC-conjugated antibody against NGFR. Absolute cell number counts were determined based on the percentages of ΔNGFR^+ cells. The experiment shown is representative for 5 independent experiments performed. (B) CA-STAT5b-ER-IRES-ΔNGFR transduced B cells 30 days after transduction were cultured for 7 days in the absence of 4HT. Equal numbers of cells were cultured then either in the presence (closed squares) or absence of 4HT (open squares) and absolute cell numbers were determined. Shown is a representative experiment out of 3. (C) Flow cytometric analysis of a representative culture of CA-STAT5b-ER-IRES-ΔNGFR transduced B cells cultured in CD40L, IL-2 and IL-4 in the presence of 4HT. Isotype control stainings are shown as thin histograms.
We then transduced human tonsillar B cells with the CA-STAT5b-ER-IRES-ΔNGFR construct and examined the effect of 4HT on the proliferative capacity of these B cells. […]

BCL-6 = BCL-6 expression in STAT5b-ER+ tonsil B cells after 4HT, RT-PCR and Western blot; format: cell-based, human; conditions: 4HT added back for 8 hr after 10 days without
Procedure: FIG. 21. Induction of BCL-6 expression by STAT5. (A) RT-PCR analysis of BCL-6 and HPRT in B cells transduced with CA-STAT5b-ER cultured in CD40L, IL-2 and IL-4 with 4HT. After incubation of the cells without 4HT for 10 days, 4HT was added back for 8 hr in the presence or absence of cyclohexamide (CH). This experiment was repeated 3 times with similar results. (B) Expression of BCL-6 protein in CA-STAT5b-ER-transduced B cells cultured in the presence of 4HT constantly or absence of 4HT for 12 days as determined by Western blot analysis using an anti-BCL-6 antibody. An antibody against actin was used as a protein loading control. Similar results were obtained in 3 independent experiments. (C) Dual luciferase reporter assay. Part of the promoter region of the BCL-6 gene (position −657/+471 bp) was linked to the firefly (P. pyralis) luciferase coding sequence and subcloned into the pGL3 vector. One potential STAT5 binding site in this promoter region (−548/−566 bp) was mutated from […] to […], and two different clones (BCL-6* and BCL-6**) were subcloned into the pGL3-firefly luciferase backbone. These pGL3 constructs were cotransfected with LZRS-CA-STAT5b and the Renilla luciferase containing vector into 293T cells. Both luciferase activities were measured sequentially from a single sample and relative luciferase units were calculated and corrected for the Renilla luciferase activity. […]

4-Hydroxy-Tamoxifen [4HT]
growth selection of CA-STAT5b-ER expressing cells (ΔNGFR+) (human tonsillar B cells): only occurred in the presence of 4HT
expression of the BCL-6 transcript with 4HT versus without (BCL-6): substantially higher
